This is an account of results in PMC10384408, “Anticancer Tungstenocenes with a Diverse Set of (O,O–), (O,S–) and (O,N–) Chelates—A Detailed Biological Study Using an Improved Evaluation via 3D Spheroid Models” (Pharmaceutics, 2023).

Series [1] has as its system A549 (non-small cell lung carcinoma) cells. The conditions noted are these: MTT assay, 96 h; cited from earlier work. On the technique in general: Tetrazolium assays rely on reduction of a dye to a coloured formazan, in cell work by metabolically active cells.
In series [2] the test system is CH1/PA-1 (ovarian teratocarcinoma) cells. The following applies: MTT assay, 96 h; cited from earlier work.
Series [3] has as its system SW480 (colon carcinoma) cells. The following applies: MTT assay, 96 h; cited from earlier work.
Series [4] relates to IMR-90 human lung fibroblasts. Kind of series: MTT cytotoxicity assay, IMR-90 fibroblasts. Type of series: cell-based. The conditions noted are these: exposure time 96 h, mean ± SD. The method, then:
(§1) CH1/PA-1 (ovarian teratocarcinoma), SW480 (colon carcinoma) and A549 (non-small cell lung cancer) cells were maintained as described in the reference. IMR-90 human fetal lung fibroblasts (from the European Collection of Authenticated Cell Cultures, Porton Down, Salisbury, UK) were cultured in Stable Cell^TM DMEM/F12 supplemented with 0.01 mg/mL human recombinant insulin (both purchased from Sigma-Aldrich) and 10% fetal bovine serum (FBS, BioWest, Nuaillé, France). Human colon carcinoma cell lines HCT116 and HT29 (both kindly provided by the Institute of Cancer Research, Department of Medicine I, Medical University of Vienna, Austria) were cultured in McCoy’s 5a medium supplemented with 4 mM L-glutamine (both purchased from Sigma-Aldrich) and 10% FBS. MCF-7 human breast adenocarcinoma cells (kindly provided by M. Ogris, Department of Pharmaceutical Sciences, University of Vienna, Austria) were maintained in DMEM (high glucose) supplemented with 4 mM L-glutamine, 0.1 mg/mL human insulin (all purchased from Sigma-Aldrich) and 10% FBS. All cell lines were grown as monolayers in 75 cm^2 culture flasks (CytoOne, Starlab, Hamburg, Germany) at 37 °C in a humidified atmosphere containing 5% CO2.
(§2) Exponentially growing cells were plated into 96-well microculture plates (CytoOne, tissue culture treated, Starlab, Hamburg, Germany) in densities of 1 × 10^3 CH1/PA-1, 2 × 10^3 SW480, 3 × 10^3 A549 and 7 × 10^3 IMR-90 cells per well (each in 100 µL). After a 24 h preincubation, drugs were added in serial dilution to give a final volume of 200 µL/well and exposed for 96 h. At the end of the exposure, the drug solutions were replaced by 100 µL RPMI 1640/MTT mixture (7:1 ratio). MTT (3-(4,5-dimethylthiazol-2-yl)-2,5-diphenyl-2H-tetrazolium bromide), (Acros Organics, Geel, Belgium) solution was prepared in phosphate-buffered saline (5 mg/mL) and mixed with RPMI1640 medium supplemented with 4 mM L-glutamine (both from Sigma-Aldrich) and 10% FBS. After 4 h incubation, the formazan crystals were solubilized in 150 µL of DMSO per well. Absorbance was measured at 550 nm (and at 690 nm as a reference) with a microplate reader (ELx808, BioTek, Winoosky, VT, USA) and Gen5^TM 3.08 software (BioTek). The 50% inhibitory concentrations (IC50) relative to untreated controls were interpolated from concentration-effect curves. At least three biologically and technically independent experiments were performed.

For series [5], the system named is SW480 (colon carcinoma) cells. Briefly: MTT cytotoxicity assay, SW480 monolayer. Type of series: cell-based, human. The method, then: as §1, §2
Series [6] is described as follows: Solubility in PBS (1% DMSO). Type of series: physicochemical. As to the method: Stock solutions in DMSO of compounds 1–10 were utilized to determine the solubility in PBS by adding 1 vol% of the stock solution to a suitable amount of PBS. […] UV/Vis data were recorded on a Perkin Elmer Lambda 650 UV/Vis Spectrophotometer with a Peltier element for temperature control.

Series [7] relates to HCT116 cells. Briefly: Annexin V-FITC/PI apoptosis assay, HCT116. Type of series: cell-based, human. The following applies: HCT116, 24 h, 200 µM.
The test system of series [8] is CH1/PA-1 (ovarian teratocarcinoma) cells. Briefly: MTT cytotoxicity assay, CH1/PA-1 monolayer. Type of series: cell-based, human. The following applies: exposure time 96 h, mean ± SD. The method, then: as §1, §2
The test system of series [9] is HT29 multicellular tumor spheroids. Briefly: Resazurin assay, HT29 3D spheroids. Type of series: cell-based, human. The following applies: 96 h, spheroids. As to the method:
as §1
(§3) For growing multicellular tumor spheroids, 400 HCT116, 400 HT29 or 800 MCF-7 cells per well were plated into round-bottom ultra-low attachment 96-well plates (Corning, Glendale, AZ, USA) in the media described above and incubated at 37 °C for 96 h. Spheroids were treated with 10 µM of the two most cytotoxic compounds 3 and 4 for another 96 h. The diameters of the spheroids were measured with Cell^F software under a CKX41 Olympus microscope before treatment and in constant daily intervals over the 96 h treatment period. For statistical analysis the t-test with Welsh’s correction was implemented in GraphPad Prism software (Version 6.01).
(§4) For the resazurin assay in monolayer cultures, cells were seeded into 96-well microculture plates (CytoOne, tissue culture treated, Starlab, Hamburg, Germany) in densities of 2 × 10^3 HCT116, 2 × 10^3 HT29 and 4 × 10^3 MCF-7 cells per well (each in 100 µL). For tests in 3D cultures, spheroids were grown as described above. After 24 h (for monolayers) or 4 days (for spheroids) the test compounds in the appropriate medium were added in serial dilution to the plates to obtain a total volume of 200 µL/well. Wells without cells, containing medium and resazurin (Alfa Aesar, Thermo Fisher, Kandel, Germany) solution were used as blanks. After 96 h exposure 20 µL of the resazurin solution (440 µM) were added to each well, followed by a 4 h (2D) or 12 h (3D) incubation period. Resorufin fluorescence was quantified at 530 nm (and a reference wavelength of 620 nm) by using a microplate reader (Synergy HT, BioTek) with Gen5^TM 3.10 software (BioTek).

The test system of series [10] is MCF-7 cells. Briefly: Annexin V-FITC/PI apoptosis assay, MCF-7. The conditions noted are these: MCF-7, 24 h, 200 µM.
The test system of series [11] is HT29 cells. Briefly: Resazurin assay, HT29 2D monolayer. Type of series: cell-based, human. The following applies: 96 h. The method, then: as §1, §4
In series [12] the test system is MCF-7 cells. Briefly: Resazurin assay, MCF-7 2D monolayer. Type of series: cell-based, human. The conditions noted are these: 96 h. The method, then:
as §1, §4
(The colour change of resazurin is a common sign of viable cells or microbes.)

Series [13] relates to HT29 cells. Briefly: Annexin V-FITC/PI apoptosis assay, HT29. The conditions noted are these: HT29, 24 h, 200 µM.
For series [14], the system named is HCT116 cells. Briefly: Resazurin assay, HCT116 2D monolayer. Type of series: cell-based, human. The conditions noted are these: 96 h. The method, then:
as §1, §4

Series [15] relates to A549 (non-small cell lung carcinoma) cells. Briefly: MTT cytotoxicity assay, A549 monolayer. Type of series: cell-based, human. The method, then: as §1, §2
In series [16] the test system is MCF-7 multicellular tumor spheroids. Briefly: Resazurin assay, MCF-7 3D spheroids. Type of series: cell-based, human. The following applies: 96 h, spheroids. The method, then: as §1, §3, §4
The test system of series [17] is HCT116 multicellular tumor spheroids. Briefly: Resazurin assay, HCT116 3D spheroids. Type of series: cell-based, human. The following applies: 96 h, spheroids. The method, then: as §1, §3, §4
In series [18] the test system is HCT116, HT29 and MCF-7 cell lines. Kind of series: ROS detection (DCFH-DA assay). Type of series: cell-based, human. The conditions noted are these: 2, 20, 100 and 200 µM, 2 h. As to the method:
Reactive oxygen species (ROS) generation was measured by means of the DCFH-DA assay. […] On the following day, cells were washed with 200 µL Hanks’ balanced salt solution (HBSS, Sigma-Aldrich, containing 1% FBS) and stained with 100 µL of 25 µM DCFH-DA (2′,7′-dichlorofluorescein diacetate, Sigma-Aldrich) in HBSS (containing 1% FBS) for 45 min at 37 °C in the dark. After the incubation period, cells were washed with 200 µL HBSS (1% FBS) and loaded with compounds at concentrations of 2 µM, 20 µM, 100 µM and 200 µM in 200 µL phenol-red-free MEM (1% FBS) in triplicates. As positive controls, cells were treated with 200 µM and 400 µM tert-butylhydroperoxide (Sigma-Aldrich). Wells containing only phenol-red-free medium with 1% FBS were used as blanks, and non-drug treated, cell containing wells as reference values. Fluorescence (excitation: 485/20 nm, emission: 516/20 nm) was recorded in 10 min intervals with the Synergy HT reader (BioTek) over 2 h.

Read-outs that look alike come from different tables or passages of the source. Where only a bound is given, the exact number is not on record here.

Turning to `N.N.[Cl][Pt][Cl]` [Cisplatin], the IC50 in series [1] is 3.8 ± 1 µM; in [2] it was 0.073 ± 0.001 µM; in [3] it was 2.3 ± 0.2 µM; in series [4], 14 ± 1 µM.
As to `Cc1occc(=O)c1[O-].[Cl-].[W+4].c1cc[cH-]c1.c1cc[cH-]c1` [Compound 1A, Bis(η^5-cyclopentadienyl)[2-methyl-3-(oxo-κO)-4-(1H)-pyran-4-ato-κO]tungsten(IV) chloride], in series [5] (96 h), the “activity in SW480” value is reported as “no activity was observed”. The IC50 in series [5] (exposure time 96 h, mean ± SD) is more than 200 µM; in series [8], 147 ± 18 µM; in [9], more than 200 µM; in the series with HT29 cells [11], more than 200 µM; in the series on MCF-7 cells [12], more than 200 µM; in the series on HCT116 cells [14] it was more than 200 µM. The IC50 was more than 200 µM in series [15] (exposure time 96 h, mean ± SD); more than 200 µM in series [16]; more than 200 µM in series [17]. Besides, the “Solubility in PBS (1% DMSO)” value in [6] is 5000 µg/mL. Further, the “early apoptotic cells [%] AV+ / PI-” value in the series with HCT116 cells [7] is listed as 5.6 ± 2.1%; in the series on MCF-7 cells [10] it was 1.1 ± 0.6%; with HT29 cells [13] it was 3.5 ± 2.5%. Moreover, the “late apoptotic cells [%] AV+ / PI+” value in the series on HCT116 cells [7] stood at 16.1 ± 4.6%; in the series on MCF-7 cells [10], 3.2 ± 1.3%; in the series with HT29 cells [13], 4.3 ± 0.9%. Also, the “necrotic cells [%] AV- / PI+” value with HCT116 cells [7] came to 3.8 ± 2.1%; in the series on MCF-7 cells [10], 2.3 ± 0.5%; in the series with HT29 cells [13], 4.4 ± 4.8%. The “viable cells [%] AV- / PI-” value in the series on HCT116 cells [7] is 74.5 ± 7.0%; with MCF-7 cells [10] it was 94.3 ± 2.3%; in the series with HT29 cells [13], 87.8 ± 4.0%. Further, the “∑apoptotic cells [%]” value was found to be 21.7% with HCT116 cells [7] (sum of early and late); 4.3% in the series on MCF-7 cells [10] (sum of early and late); 7.8% in the series on HT29 cells [13] (sum of early and late). Also, the “activity in A549” value in [15] (96 h) is reported as “no activity was observed”. In addition, the “intracellular ROS levels” value in [18] is recorded as “Pronounced elevation of ROS levels”.

Usually IC50 stands for the concentration at which inhibition is half-maximal.
